Source: ChEMBL document CHEMBL1914348, “Discovery of pyrazoles as novel FPR1 antagonists” (Bioorg Med Chem Lett, 2011)
The source made the active and inactive calls. The rule behind the calls is not given here.

Key:
[1] = molecular target: T1, fMet-Leu-Phe receptor (Homo sapiens, UniProt P21462); assay: Antagonist activity at human FPR1 in human neutrophils assessed as inhibition of fMLF-stimulated intracellular calcium mobilisation by FLIPR assay; type: functional, cell-based
T1 sequence (P21462 whole entry): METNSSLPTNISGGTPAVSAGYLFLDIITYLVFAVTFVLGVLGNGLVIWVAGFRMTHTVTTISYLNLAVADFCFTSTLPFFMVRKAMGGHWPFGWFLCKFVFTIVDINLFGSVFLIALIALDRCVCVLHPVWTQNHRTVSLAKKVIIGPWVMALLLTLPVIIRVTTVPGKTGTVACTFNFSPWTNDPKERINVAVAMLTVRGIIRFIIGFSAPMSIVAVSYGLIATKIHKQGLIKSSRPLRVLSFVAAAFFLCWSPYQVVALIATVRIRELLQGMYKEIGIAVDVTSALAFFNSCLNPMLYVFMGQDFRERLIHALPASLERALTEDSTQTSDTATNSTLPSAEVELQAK

[2] = molecular target: T1, fMet-Leu-Phe receptor; assay: Antagonist activity at FPR1 in whole blood assessed as CD11 level; type: functional, tissue-based; settings: read-out: pA2 (converted)
[3] = Lipophilicity, log D of the compound; type: physicochemical; settings: octanol/water
[4] = Solubility of the compound; type: physicochemical
[5] = Fraction unbound in human; type: ADME, organism-based; settings: in vivo
[6] = Fraction unbound in rat; type: ADME, organism-based; settings: in vivo
[7] = Intrinsic clearance in human microsomes; type: ADME, Microsome
[8] = Intrinsic clearance in Sprague-Dawley rat microsomes; type: ADME, Microsome
[9] = Intrinsic clearance in human hepatocytes assessed per 10 '6 cells; type: ADME, cell-based, Liver, Hepatocyte
[10] = Intrinsic clearance in Sprague-Dawley rat hepatocytes assessed per 10 '6 cells; type: ADME, cell-based, Liver, Hepatocyte
[11] = Chemical stability of the compound assessed as half life; type: physicochemical
[12] = molecular target: T2, Cytochrome P450 1A2 (Homo sapiens, UniProt P05177); assay: Inhibition of CYP1A2; type: ADME
T2 sequence (P05177 whole entry): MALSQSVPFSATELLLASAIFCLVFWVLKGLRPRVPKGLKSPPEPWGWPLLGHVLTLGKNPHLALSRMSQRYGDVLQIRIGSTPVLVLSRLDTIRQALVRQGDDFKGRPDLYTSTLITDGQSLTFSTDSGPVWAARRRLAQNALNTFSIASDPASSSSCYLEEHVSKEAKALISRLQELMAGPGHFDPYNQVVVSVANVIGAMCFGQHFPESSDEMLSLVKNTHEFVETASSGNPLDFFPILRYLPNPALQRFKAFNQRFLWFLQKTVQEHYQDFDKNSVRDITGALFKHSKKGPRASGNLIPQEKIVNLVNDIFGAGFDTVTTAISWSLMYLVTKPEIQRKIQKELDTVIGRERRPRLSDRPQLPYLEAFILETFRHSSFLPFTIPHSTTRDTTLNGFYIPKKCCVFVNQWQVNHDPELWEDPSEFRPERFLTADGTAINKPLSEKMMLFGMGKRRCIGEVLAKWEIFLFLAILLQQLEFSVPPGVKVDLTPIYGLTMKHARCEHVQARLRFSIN

[13] = molecular target: Cytochrome P450 2C9 (Homo sapiens, UniProt P11712); assay: Inhibition of CYP2C9; type: ADME
Chain of Cytochrome P450 2C9 (P11712 whole entry): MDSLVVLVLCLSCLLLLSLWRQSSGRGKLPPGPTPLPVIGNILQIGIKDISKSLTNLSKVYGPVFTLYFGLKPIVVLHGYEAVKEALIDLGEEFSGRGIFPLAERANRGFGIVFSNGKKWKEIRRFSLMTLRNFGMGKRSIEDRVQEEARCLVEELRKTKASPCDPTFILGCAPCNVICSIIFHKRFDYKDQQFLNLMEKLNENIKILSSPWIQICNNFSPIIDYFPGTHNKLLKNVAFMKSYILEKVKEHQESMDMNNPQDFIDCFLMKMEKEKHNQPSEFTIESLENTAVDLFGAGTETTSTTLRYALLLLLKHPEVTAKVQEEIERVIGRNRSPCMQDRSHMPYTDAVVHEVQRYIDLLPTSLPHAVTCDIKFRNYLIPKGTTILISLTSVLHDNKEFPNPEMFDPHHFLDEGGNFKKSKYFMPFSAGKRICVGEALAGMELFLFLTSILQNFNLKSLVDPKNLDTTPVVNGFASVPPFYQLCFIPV

[14] = molecular target: Cytochrome P450 2C19 (Homo sapiens, UniProt P33261); assay: Inhibition of CYP2C19; type: ADME
Chain of Cytochrome P450 2C19 (P33261 whole entry): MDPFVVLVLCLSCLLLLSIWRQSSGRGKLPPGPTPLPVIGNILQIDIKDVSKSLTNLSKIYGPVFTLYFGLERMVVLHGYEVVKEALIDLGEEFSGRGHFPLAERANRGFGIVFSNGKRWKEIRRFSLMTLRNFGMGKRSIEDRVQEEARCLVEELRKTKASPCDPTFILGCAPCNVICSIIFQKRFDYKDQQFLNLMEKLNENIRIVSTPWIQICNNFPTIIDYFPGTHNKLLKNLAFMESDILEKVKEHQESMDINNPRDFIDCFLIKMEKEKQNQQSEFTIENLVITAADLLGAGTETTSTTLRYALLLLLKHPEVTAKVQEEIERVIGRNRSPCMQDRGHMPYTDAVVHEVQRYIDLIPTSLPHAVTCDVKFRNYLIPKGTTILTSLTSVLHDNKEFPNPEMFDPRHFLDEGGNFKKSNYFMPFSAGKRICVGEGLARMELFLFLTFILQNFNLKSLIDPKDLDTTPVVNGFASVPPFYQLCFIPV

[15] = molecular target: Cytochrome P450 2D6 (Homo sapiens, UniProt P10635); assay: Inhibition of CYP2D6; type: ADME
Chain of Cytochrome P450 2D6 (P10635 whole entry): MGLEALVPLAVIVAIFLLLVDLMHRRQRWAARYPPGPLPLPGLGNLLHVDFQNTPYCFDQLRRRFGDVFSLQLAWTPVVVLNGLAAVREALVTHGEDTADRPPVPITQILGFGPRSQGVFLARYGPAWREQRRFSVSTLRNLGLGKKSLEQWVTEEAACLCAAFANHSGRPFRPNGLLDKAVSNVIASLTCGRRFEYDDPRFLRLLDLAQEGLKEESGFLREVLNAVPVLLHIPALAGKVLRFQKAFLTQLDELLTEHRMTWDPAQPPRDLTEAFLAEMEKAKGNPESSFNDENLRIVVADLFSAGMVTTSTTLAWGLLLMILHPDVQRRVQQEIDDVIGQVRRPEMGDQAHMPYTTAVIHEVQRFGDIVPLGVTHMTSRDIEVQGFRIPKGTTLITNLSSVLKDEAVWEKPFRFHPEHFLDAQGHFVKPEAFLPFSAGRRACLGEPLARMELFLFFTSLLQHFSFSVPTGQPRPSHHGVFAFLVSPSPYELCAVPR

[16] = molecular target: Cytochrome P450 3A4 (Homo sapiens, UniProt P08684); assay: Inhibition of CYP3A4; type: ADME
Chain of Cytochrome P450 3A4 (P08684 whole entry): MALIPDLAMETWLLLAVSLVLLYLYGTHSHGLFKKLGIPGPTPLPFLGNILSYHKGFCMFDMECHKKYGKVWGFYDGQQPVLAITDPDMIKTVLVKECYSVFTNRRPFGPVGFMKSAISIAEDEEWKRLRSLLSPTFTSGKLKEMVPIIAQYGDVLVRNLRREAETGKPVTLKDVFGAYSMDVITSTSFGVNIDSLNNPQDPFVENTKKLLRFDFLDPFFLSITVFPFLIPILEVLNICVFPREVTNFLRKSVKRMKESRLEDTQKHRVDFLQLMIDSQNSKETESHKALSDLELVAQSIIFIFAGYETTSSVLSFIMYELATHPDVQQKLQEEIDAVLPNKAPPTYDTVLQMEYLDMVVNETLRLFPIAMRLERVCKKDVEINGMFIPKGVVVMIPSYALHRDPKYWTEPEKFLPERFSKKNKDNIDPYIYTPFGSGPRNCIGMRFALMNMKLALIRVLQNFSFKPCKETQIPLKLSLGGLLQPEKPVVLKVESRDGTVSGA

[17] = molecular target: T3, fMet-Leu-Phe receptor (Mus musculus) (UniProt P33766); assay: Inhibition of mouse FPR1
T3 sequence (whole entry): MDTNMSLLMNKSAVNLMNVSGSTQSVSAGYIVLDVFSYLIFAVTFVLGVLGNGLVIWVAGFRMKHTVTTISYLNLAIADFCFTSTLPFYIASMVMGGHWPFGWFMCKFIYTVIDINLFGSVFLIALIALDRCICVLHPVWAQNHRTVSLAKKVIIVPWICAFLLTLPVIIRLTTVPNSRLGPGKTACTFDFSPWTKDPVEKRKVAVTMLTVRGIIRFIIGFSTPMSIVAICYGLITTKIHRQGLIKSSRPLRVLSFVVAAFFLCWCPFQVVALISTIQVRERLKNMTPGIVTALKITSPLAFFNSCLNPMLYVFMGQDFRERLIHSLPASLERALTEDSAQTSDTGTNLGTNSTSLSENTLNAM

[18] = organism: Cavia porcellus; assay: Inhibition of guinea pig FPR1
[19] = organism: Rattus norvegicus; assay: Inhibition of rat FPR1
[20] = molecular target: T4, fMet-Leu-Phe receptor (Homo sapiens) (UniProt P21462); assay: Antagonist activity at human FPR1 in human neutrophils assessed as inhibition of fMLF-stimulated intracellular calcium mobilisation at 50 uM by FLIPR assay; type: functional, cell-based
T4 sequence (whole entry): T1 sequence (P21462 whole entry)

Cc1ccc(S(=O)(=O)Nc2c(C(=O)N[C@@H](C)C(C)(C)C)c(C(F)(F)F)nn2-c2ccccc2)cc1
IC50 [1]: 25.1 nM

Cc1ccc(S(=O)(=O)Nc2c(C(=O)N[C@@H](C)C(C)(C)C)c(C)nn2-c2ccccc2)cc1
IC50 [1]: 79.4 nM | Kb [2]: 398 nM | logD [3]: 1.4 | solubility [4]: > 1000 µM | fraction unbound [5]: 0.011 | fraction unbound [6]: 0.042 | microsomal CLint [7]: 40 µL/min/mg | microsomal CLint [8]: 53 µL/min/mg | hepatocyte CLint [9]: 7 µL/min/1e6 cells | hepatocyte CLint [10]: 12 µL/min/1e6 cells | half-life [11]: > 41.7 days | IC50 [12]: > 10000 nM | IC50 [13]: > 10000 nM | IC50 [14]: > 10000 nM | IC50 [15]: > 10000 nM | IC50 [16]: > 10000 nM | inhibition [17]: inactive | inhibition [18]: inactive | inhibition [19]: inactive

CCCC(CC)NC(=O)c1cnn(-c2ccccc2)c1NS(=O)(=O)c1ccc(C)cc1 (configuration not stated)
IC50 [1]: 316 nM

Cc1ccc(S(=O)(=O)Nc2c(C(=O)NC3CCOCC3)c(C)nn2-c2ccccc2)cc1
IC50 [1]: 5010 nM

Cc1ccc(S(=O)(=O)Nc2c(C(=O)N[C@H](C)C(C)(C)C)c(C)nn2-c2ccccc2)cc1
IC50 [1]: 501 nM

CCC(CC)NC(=O)c1cnn(-c2ccccc2Cl)c1NS(=O)(=O)c1ccc(C)cc1
IC50 [1]: 10000 nM

Cc1ccc(S(=O)(=O)Nc2c(C(=O)NCC(C)(C)C)c(C)nn2-c2ccccc2)cc1
IC50 [1]: 2000 nM

CCC(CC)NC(=O)c1cnn(-c2ccccc2)c1NS(=O)(=O)C1CCCC1
IC50 [1]: 5010 nM

Cc1nn(-c2ccccc2)c(NS(=O)(=O)C2CCCCC2)c1C(=O)N[C@@H](C)C(C)(C)C
IC50 [1]: 1000 nM

Cc1ccc(S(=O)(=O)Nc2c(C(=O)NC(C)C(C)(C)C)c(C)nn2-c2ccccc2)cc1 (configuration not stated)
IC50 [1]: 126 nM

CCC(CC)NC(=O)c1cnn(-c2ccccc2)c1NS(=O)(=O)c1ccc(-c2cnco2)cc1
IC50 [1]: 5010 nM

Cc1nn(-c2ccc(F)cc2)c(NS(=O)(=O)c2cccnc2)c1C(=O)N[C@@H](C)C(C)(C)C
IC50 [1]: 1000 nM

CCC(CC)NC(=O)c1cnn(-c2ccccn2)c1NS(=O)(=O)c1ccc(C)cc1
IC50 [1]: 20000 nM

CCC(CC)NC(=O)c1ncn(-c2ccccc2)c1NS(=O)(=O)c1ccc(C)cc1
IC50 [1]: 1580 nM

CNC(=O)c1cnn(-c2ccccc2)c1NS(=O)(=O)c1ccc(C)cc1
inhibition [20]: < 25%

CCC(CC)NC(=O)c1cnn(-c2ccc(C#N)cc2)c1NS(=O)(=O)c1ccc(C)cc1
IC50 [1]: 15800 nM

CCC(CC)NC(=O)c1cnn(-c2ccccc2)c1NS(=O)(=O)c1ccccc1C
IC50 [1]: 6310 nM

Cc1nn(-c2ccc(F)cc2)c(NS(=O)(=O)c2ccc(C#N)cc2)c1C(=O)N[C@@H](C)C(C)(C)C
IC50 [1]: 25.1 nM | Kb [2]: 126 nM | logD [3]: 0.5 | solubility [4]: > 1000 µM | fraction unbound [5]: 0.06 | fraction unbound [6]: 0.1 | microsomal CLint [7]: 5 µL/min/mg | microsomal CLint [8]: 13 µL/min/mg | hepatocyte CLint [9]: < 3 µL/min/1e6 cells | hepatocyte CLint [10]: 4 µL/min/1e6 cells | half-life [11]: > 41.7 days | IC50 [12]: > 10000 nM | IC50 [13]: > 10000 nM | IC50 [14]: > 10000 nM | IC50 [15]: > 10000 nM | IC50 [16]: > 10000 nM | inhibition [17]: inactive | inhibition [18]: inactive | inhibition [19]: inactive

Cc1ccc(S(=O)(=O)Nc2c(C(=O)N(C)C3CCCCC3)c(C)nn2-c2ccccc2)cc1
IC50 [1]: 3160 nM

CCC(CC)NC(=O)c1c(C)nn(-c2ccccc2)c1NS(=O)(=O)c1ccc(C)cc1
IC50 [1]: 501 nM

Cc1ccc(S(=O)(=O)Nc2c(C(=O)NC3CCOCC3)cnn2-c2ccccc2)cc1
IC50 [1]: 10000 nM

Cc1nn(-c2ccccc2)c(NS(=O)(=O)c2cccc(CN3CCOCC3)c2)c1C(=O)N[C@@H](C)C(C)(C)C
inhibition [20]: < 25%

CCC(CC)NC(=O)c1cnn(-c2ccccc2)c1NS(=O)(=O)c1ccc(C)cc1
IC50 [1]: 2000 nM

Cc1ccc(S(=O)(=O)Nc2c(C(=O)NC3CCCCC3C)c(C)nn2-c2ccccc2)cc1 (mixture of isomers)
IC50 [1]: 158 nM

CCC(CC)NC(=O)c1cnn(C)c1NS(=O)(=O)c1ccc(C)cc1
inhibition [20]: < 25%

CCN(C(=O)c1cnn(-c2ccccc2)c1NS(=O)(=O)c1ccc(-c2cnco2)cc1)C1CCCCC1
IC50 [1]: 79.4 nM

CCC(CC)NC(=O)c1cn(-c2ccccc2)nc1NS(=O)(=O)c1ccc(C)cc1
IC50 [1]: 10000 nM

Cc1ccc(S(=O)(=O)Nc2c(C(=O)NC3CCCCC3)c(C)nn2-c2ccccc2)cc1
IC50 [1]: 794 nM

Cc1ccc(S(=O)(=O)Nc2c(C(=O)NCc3ccccc3)cnn2-c2ccccc2)cc1
IC50 [1]: 10000 nM

Cc1ccc(S(=O)(=O)Nc2c(C(=O)NC(C)C)c(C)nn2-c2ccccc2)cc1
IC50 [1]: 6310 nM

CCC(CC)NC(=O)c1cnn(-c2ccccc2)c1NS(=O)(=O)c1ccccc1
IC50 [1]: 5010 nM

CCC(CC)NC(=O)c1nnn(-c2ccccc2)c1NS(=O)(=O)c1ccc(C)cc1
IC50 [1]: 3980 nM

Cc1nn(-c2ccc(F)cc2)c(NS(=O)(=O)c2ccc(C(F)(F)F)cc2)c1C(=O)N[C@@H](C)C(C)(C)C
IC50 [1]: 12.6 nM

CCC(CC)NC(=O)c1cnn(Cc2ccccc2)c1NS(=O)(=O)c1ccc(C)cc1
IC50 [1]: 5010 nM

Cc1ccc(S(=O)(=O)Nc2c(C(=O)NCc3ccc(C)cc3C)cnn2-c2ccccc2)cc1
IC50 [1]: 794 nM

CCC(CC)NC(=O)c1cnn(C(C)C)c1NS(=O)(=O)c1ccc(C)cc1
IC50 [1]: 10000 nM

Cc1ccc(S(=O)(=O)Nc2c(C(=O)NC3CCCCC3)cnn2-c2ccccc2)cc1
IC50 [1]: 3980 nM

Cc1ccc(S(=O)(=O)Nc2c(C(=O)N(C)C3CCCCC3)cnn2-c2ccccc2)cc1
IC50 [1]: 1580 nM

Cc1ccc(S(=O)(=O)Nc2c(C(=O)NC3CCN(C)CC3)cnn2-c2ccccc2)cc1
inhibition [20]: < 25%

Cc1ccc(S(=O)(=O)Nc2c(C(=O)NC3CCCCC3C)cnn2-c2ccccc2)cc1 (mixture of isomers)
IC50 [1]: 1000 nM

CCC(C)NC(=O)c1c(C)nn(-c2ccccc2)c1NS(=O)(=O)c1ccc(C)cc1 (configuration not stated)
IC50 [1]: 158 nM
